Data as given in US20090054529A1, “Flow Path Conditioner System” (priority 2005, published 2009).

Tested on: E coli (ATCC 25922, MRI EC 13) and Pseudomonas aeruginosa (ATCC 9027, MRI Ps 10)
Assay: Example 4 summary of the 62 test samples (both cultures pooled)
Format: cell-based
Conditions: aqueous mixtures of up to 20% v/v; Example 4 text summary
Method: Freshly cultivated cultures of E coli (ATCC 25922, MRI EC 13) and Pseudomonas aeruginosa (ATCC 9027, MRI Ps 10) were suspended in MHB (Mueller-Hinton Broth) nutrient broth at 10^8 cfu/ml (colony-forming units per milliliter), diluted about 1:10 in peptone nutrient broth to about 10^7 cfu/ml. About 1 ml of each of the diluted cultures was added to one each of 9 ml of the corresponding test solutions described below for 5.0 minutes and then diluted in two steps of 1:10 per step. 100 microliters of such diluted culture was then plated onto a conventional nutrient agar plate. Nutrient agar plates were incubated by conventional methods and the number of colonies present on each plate were counted. Positive controls combined freshly cultivated cultures above described with peptone broth were included in each test group and numbers of colonies in control plates were used as a reference.
Now referring to Table 4, the results of combining each test solution as described above with each of the E coli (ATCC 25922, MRI EC 13) and Pseudomonas aeruginosa (ATCC 9027, MRI Ps 10) cultures are summarized using the following quantitative nomenclature: […]

SMILES | effectiveness in reducing microorganisms
CO [methanol] | do not appear to be effective
CCO [ethanol] | do not appear to be effective
